According to publication PMC4593073, “Non-invasive imaging and cellular tracking of pulmonary emboli by near-infrared fluorescence and positron-emission tomography” (Nature Communications, 2015):
Where no end group is shown, it is not given here.

How the values were obtained:
Cells grown on plastic = test: Uptake of the cell viability dye DRAQ7; assay type: cell-based; conditions: 50 μM, 2 hrs
Procedure: Discrimination between on and off states in PAR1–RIP observed in vitro translated in vivo. To gauge the interaction of RIP probes with cells, we measured their toxicity at ∼6- to 600-fold excess of the intended use in vivo. […] Inclusion of the highly specific thrombin inhibitor hirudin blocked these protease-dependent effects and confirmed the key role for thrombin in this process. Cells grown on plastic were incubated with […] pro-peptide to confirm that uptake of the fluorescent dye DRAQ7 only occurred in the protease-treated form (Supplementary Fig. 3a) not the pro-peptide alone (Supplementary Fig. 3b). Concentrations required to mediate toxicity in cell culture exceed those used in animal studies described below by several orders of magnitude, but provide a useful readout nonetheless.
Supplementary Figure 3 – The cellular effects of the active PAR1-RIP peptide. High-doses (50 μM) of the cleaved PAR1-RIP lead to
concentrations for extended periods of time (2 hrs). Scale bars, 20 µm.
(1 picture or pasted object on this page, not shown here)

[1] = Acute toxicology: serum panel of hepatic and renal functions; assay type: in vivo, C57BL/6J mice; parameters: Phosphorus / Calcium: unit not given here; conditions: mean±s.e.m., n=3
Procedure: To address the safety profile of this novel functional imaging platform, PAR1–RIP probe was administered in C57BL/6J mice at a concentration threefold higher than used for the imaging studies (150 picomoles, 100 μl). […] The serum was pipetted into clean tubes and frozen before shipment to IDEXX BioResearch (Sacramento, CA) for a comprehensive panel of hepatic and renal functions. All tests were performed using an Olympus 5400 analyser. Measurements of the following enzymes and electrolytes were provided: alkaline phosphatase, alanine aminotransferase, aspartate aminotransferase, creatine phosphokinase, total protein, direct bilirubin, indirect bilirubin, total bilirubin, globulin, blood urea nitrogen, creatinine, cholesterol, glucose, calcium, phosphorus, bicarbonate, chloride, potassium, sodium and haemolysis index.
Toxicology results are presented as mean±s.e.m. Data were analysed using GraphPad Prism (GraphPad Software Inc., San Diego, CA) and statistical differences among experimental groups of animals were detected using one-way analysis of variance (ANOVA) followed by Dunnett’s post-test; P<0.05 was considered statistically significant.

thrombin (factor IIa) = target: T1, thrombin (factor IIa) (Homo sapiens, UniProt P00734); test: Peptide kinetics: proteolysis of the probe followed by HPLC/mass spectrometry; assay type: biochemical; conditions: HPLC, 37 °C, PBS pH 7.4, mean±s.d., n=3
T1 construct: Human clotting factors IIa (thrombin), VIIa, IXa, Xa, XIa, plasmin and aPC; purchased Haematologic Technologies
From the text: Comparison of the rates of protease-mediated hydrolysis of a tripeptide chromogenic substrate (P3–P1), quenched oligopeptide substrate (P4–P4′) and our PAR1–RIP probe (P4–P14′) emphasize the value of a larger surface area of interaction between enzyme and substrate in RIP probes. When substrates have limited potential contacts with the protease, and the majority of them are shared with homologous enzymes, their turnover is non-specific. For example, the chromogenic substrate d–Phe–Pro–Arg–paranitroanilide is not only an excellent substrate for thrombin but also for many other proteases (Fig. 3f). As substrate length increases to include four additional residues on the prime side of the scissile bond, specificity increases 10-fold (Fig. 3g). Inclusion of the 10 amino acids responsible for exosite binding to thrombin further increases the relative specificity eightfold and reduces the KM to a physiologically relevant value of 0.2±0.1 μM (mean±s.d., n=3; Fig. 3h). […]
Human clotting factors IIa (thrombin), VIIa, IXa, Xa, XIa, plasmin and aPC were obtained from Haematologic Technologies (Vermont, USA). Kinetics studies of probe digestion were measured by HPLC over the course of 1 h at 37 °C, using 10 nM of enzyme and 1 μM of PAR1–RIP in PBS (pH 7.4). […]

[2] = mouse serum 6 hs after 150 picomoles
[3] = mouse serum 6 hs after 150 picomoles, marked *
[4] = mouse serum 48 hs after 150 picomoles
[5] = mouse serum 72hs after 150 picomoles
[6] = mouse serum 72hs after 150 picomoles, marked *

FVQWFSKFLGKLLPR [thrombin-treated PAR1–RIP]
uptake of cell viability dye DRAQ7 (Cells grown on plastic): uptake of cell viability dyes including DRAQ7

FVQWFSKFLGKLLPRSFLLQDPNDQYEPF [PAR1–RIP]
Alanine Aminotransferase (ALT) [1, 2]: 29.7±1.4 U/L | Albumin [1, 2]: 2.7 ± 0.1 g/dL | Aspartate Aminotransferase (AST) [1, 2]: 61.7 ± 4.0 U/L | Blood Urea Nitrogen (BUN) [1, 2]: 27.0 ± 2.6 mg/dL | Calcium [1, 2]: 9.1 ± 0.1 | Chloride [1, 2]: 116.0 ± 0.6 mEq/ L | Cholesterol [1, 2]: 79 ± 0.6 mg/dL | Creatinine [1, 2]: 0.2 ± 0.0 mg/dL | Creatinine Phosphokinase (CPK) [1, 2]: 144.7 ± 27.4 U/L | Direct Bilirubin [1, 2]: 0.0 ± 0.0 mg/dL | Globulin [1, 2]: 1.9 ± 0.0 g/dL | Glucose [1, 2]: 238.7 ± 2.9 mg/dL | Indirect Bilirubin [1, 2]: 0.1 ± 0.0 mg/dL | Phosphorus [1, 2]: 6.9 ± 0.2 | Potassium [1, 2]: 4.7 ± 0.1 mEq/ L | Sodium [1, 2]: 152.3 ± 0.3 mEq/ L | Total Bilirubin [1, 2]: 0.1 ± 0.0 mg/dL | Total Protein [1, 2]: 4.6 ± 0.1 g/dL | Alkaline phosphatase [1, 3]: 149.7 ± 12.8 U/L | Bicarbonate [1, 3]: 13.3 ± 0.3 mEq/ L | Alanine Aminotransferase (ALT) [1, 4]: 26.3 ± 0.3 U/L | Albumin [1, 4]: 2.6 ± 0.1 g/dL | Alkaline phosphatase [1, 4]: 120.7 ± 6.4 U/L | Aspartate Aminotransferase (AST) [1, 4]: 57.6 ± 6.3 U/L | Bicarbonate [1, 4]: 15.0 ± 0.0 mEq/ L | Blood Urea Nitrogen (BUN) [1, 4]: 23.7 ± 1.4 mg/dL | Calcium [1, 4]: 9.0 ± 0.1 | Chloride [1, 4]: 110.3 ± 0.8 mEq/ L | Creatinine [1, 4]: 0.2 ± 0.0 mg/dL | Creatinine Phosphokinase (CPK) [1, 4]: 150.3 ± 38.0 U/L | Direct Bilirubin [1, 4]: 0.1 ± 0.0 mg/dL | Globulin [1, 4]: 2.0 ± 0.1 g/dL | Glucose [1, 4]: 203.0 ± 3.5 mg/dL | Indirect Bilirubin [1, 4]: 0.1 ± 0.0 mg/dL | Phosphorus [1, 4]: 6.8 ± 0.2 | Potassium [1, 4]: 4.6 ± 0.1 mEq/ L | Sodium [1, 4]: 153.3 ± 0.9 mEq/ L | Total Bilirubin [1, 4]: 0.12 ± 0.0 mg/dL | Total Protein [1, 4]: 4.6 ± 0.1 g/dL | Cholesterol ([1]; mouse serum 48 hs after 150 picomoles, marked *): 84.3 ± 3.5 mg/dL | Alanine Aminotransferase (ALT) [1, 5]: 20.0±1.0 U/L | Albumin [1, 5]: 2.6 ± 0.0 g/dL | Alkaline phosphatase [1, 5]: 107.0 ± 7.8 U/L | Aspartate Aminotransferase (AST) [1, 5]: 53.7 ± 12.2 U/L | Blood Urea Nitrogen (BUN) [1, 5]: 26.7 ± 1.8 mg/dL | Calcium [1, 5]: 9.1 ± 0.2 | Chloride [1, 5]: 110.3 ± 0.3 mEq/ L | Cholesterol [1, 5]: 82.7 ± 1.7 mg/dL | Creatinine [1, 5]: 0.2 ± 0.0 mg/dL | Creatinine Phosphokinase (CPK) [1, 5]: 156.3 ± 67.7 U/L | Direct Bilirubin [1, 5]: 0.0 ± 0.0 mg/dL | Globulin [1, 5]: 1.9 ± 0.1 g/dL | Glucose [1, 5]: 268.0 ± 20.1 mg/dL | Indirect Bilirubin [1, 5]: 0.1 ± 0.0 mg/dL | Phosphorus [1, 5]: 7.4 ± 0.2 | Potassium [1, 5]: 4.9 ± 0.2 mEq/ L | Total Bilirubin [1, 5]: 0.1 ± 0.0 mg/dL | Total Protein [1, 5]: 4.6 ± 0.1 g/dL | Bicarbonate [1, 6]: 18.3 ± 0.3 mEq/ L | Sodium [1, 6]: 150 ± 0.0 mEq/ L | Km (thrombin (factor IIa)): 0.2 ± 0.1 µM
